Laboratory results reported in patent US20120027842A1, “TOPICAL FORMULATIONS OF FLAP INHIBITORS FOR ADMINISTRATION TO AN EYE” (Amira Pharmaceuticals, Inc., priority 2008, published 2012).
One block for each molecule: values may come before it.

Key:
[1] = Solubility in 10% beta-hydroxypropyl cyclodextrin (BHPC) in water; type: physicochemical; conditions: Na salt; at 1 mg/mL
Protocol: In one aspect, aqueous ophthalmic solutions that include a FLAP inhibitor compounds were prepared by dissolving a FLAP inhibitor compound in 10% beta-hydroxypropyl cyclodextrin (BHPC) in water. Using this formulation, the following compounds were soluble at 1 mg/mL: Compound A (Na salt), Compound B (Na salt), Compound C (Na salt), Compound I (Na salt), Compound J (Na salt), Compound G (Na salt).

[2] = design: species or system BALB/c mice; conditions: mouse, in vivo, 10 mg/kg
[3] = test system: RSV (Long strain, serotype A); test: Mouse model of RSV-infected eye: ocular pathology; type: in vivo, BALB/c mice
Protocol: (§1) A mouse model of respiratory syncytial virus (RSV) eye infection is used to test the effects of ocular application of a FLAP inhibitor compound on RSV-induced ocular immunopathology (Bitko V, et al., J. Virol. 2007; 81(2):783-90; Bitko V, et al., Nat. Med. 2005; 11(1):50-5). Each mouse eye is topically treated with 60 ng of FLAP inhibitor compound or vehicle (sterile saline) in a volume of 2 μl. The FLAP inhibitor compound is instilled 40 min after virus inoculum and then once daily over the entire duration of the protocol (14 days).
Instillation of virus and inhibitor in the eye. Female BALB/c mice, 6 to 8 weeks old, were purchased from Charles River Laboratories. RSV (Long strain, serotype A) was grown on HEp-2 cells and purified on sucrose layers to a concentration of 10^11 PFU (Bitko et al., Nat. Med. 11:50-55, 2005). […]
Ocular pathology. Ocular disease was evaluated with a slit lamp biomicroscope as described previously (Bitko V, et al., J. Virol. 2007; 81(2):783-90) 15; Girgis et al., Invest. […] Pathology was scored on a scale of 0 to 5 as follows: 0=clear eye; 1=slight redness in the corners; 2=moderate redness and injection; 3=conjunctival and corneal injection with ciliary flush; 4=extensive injection, generally associated with some mucus; 5=most extensive injection, associated with mucus. Eyes were examined in a coded fashion with the reader unaware of the treatment given. […]

CysLTs = test: Mouse model of RSV-infected eye: CysLT measurements in eye homogenates (EIA); type: in vivo, BALB/c mice; conditions: topical treatment of RSV-infected mouse eyes, 60 ng/2 μL daily
Protocol: as §1
(§2) Instillation of virus and inhibitor in the eye. Female BALB/c mice, 6 to 8 weeks old, were purchased from Charles River Laboratories. RSV (Long strain, serotype A) was grown on HEp-2 cells and purified on sucrose layers to a concentration of 10^11 PFU (Bitko et al., Nat. Med. 11:50-55, 2005). Dilutions were done in phosphate-buffered saline (PBS) immediately before use to a final concentration of 10^4 PFU/2 μL as needed. A similarly diluted sucrose solution was used in sham-infected control mice. Mice were anesthetized by intraperitoneal injection of pentobarbital (50 mg/kg), and virus in 2 μL PBS was dropped into the corneal surface and massaged in with closed eyelids. The day of the inoculation was considered day 0. […]

IL-4 = test: Mouse model of RSV-infected eye: Interleukin-4 (IL-4) measurements in eye homogenates; type: in vivo, BALB/c mice; conditions: topical treatment of RSV-infected mouse eyes, 60 ng/2 μL daily
Protocol: as §1, §2

RSV = test: Mouse model of RSV-infected eye: RSV viral load, RNA and protein in eye and lung; type: in vivo, BALB/c mice; conditions: ocular application to RSV-infected mice
Protocol: as §1
Instillation of virus and inhibitor in the eye. Female BALB/c mice, 6 to 8 weeks old, were purchased from Charles River Laboratories. RSV (Long strain, serotype A) was grown on HEp-2 cells and purified on sucrose layers to a concentration of 10^11 PFU (Bitko et al., Nat. Med. 11:50-55, 2005). Dilutions were done in phosphate-buffered saline (PBS) immediately before use to a final concentration of 10^4 PFU/2 μL as needed. A similarly diluted sucrose solution was used in sham-infected control mice. Mice were anesthetized by intraperitoneal injection of pentobarbital (50 mg/kg), and virus in 2 μL PBS was dropped into the corneal surface and massaged in with closed eyelids. The day of the inoculation was considered day 0. The FLAP inhibitor Compound C was diluted in PBS to 60 ng/2 μL just prior to application of 2 μL 40 minutes after the RSV inoculation on day 0 and then each day.
RSV RNA and protein: RSV is assayed in the ocular tissue on various days using both Western blot and viable virus assay (plaque forming unit; pfu) as described before. […] is quantified by RT-PCR. RSV RNA and protein were measured in the eye and lung (Urnowey et al., BMC Microbiol. 6:26, 2006).
Compound C reduced RSV in the lung.
Infection of an eye eventually transmits into the lung, causing a standard respiratory infection. […] Thus, it is of interest to monitor the lung infection to determine if the ocular application of the FLAP inhibitor compound has any effect on virus replication and quantity of virus in the lung. […]

SMILES: CC(=O)N1CCC[C@H]1COc1ccc2c(c1)c(SC(C)(C)C)c(CC(C)(C)C(=O)O)n2Cc1ccc(Cl)cc1 [Compound I, 3-[5-((S)-1-Acetyl-pyrrolidin-2-ylmethoxy)-3-tert-butylsulfanyl-1-(4-chloro-benzyl)-1H-indol-2-yl]-2,2-dimethyl-propionic acid]
- solubility in 10% beta-hydroxypropyl cyclodextrin (BHPC) in water [1]: soluble

SMILES: CCN(Cc1cc(C(F)(F)F)ccc1-c1cncc(CC(=O)O)c1)C(=O)OCc1ccccc1 [DP2 receptor antagonist]
- Plasma concentration @ trough [2]: <10 nM

SMILES: COc1cnc(-c2ccc(Cn3c(CC(C)(C)C(=O)O)c(SC(C)(C)C)c4cc(OC[C@@H]5Cc6ccccc6N5C(C)=O)ccc43)cc2)nc1 [Compound C, 3-{5-((S)-1-Acetyl-2,3-dihydro-1H-indol-2-ylmethoxy)-3-tert-butylsulfanyl-1-[4-(5-methoxy-pyrimidin-2-yl)-benzyl]-1H-indol-2-yl}-2,2-dimethyl-propionic acid]
- solubility in 10% beta-hydroxypropyl cyclodextrin (BHPC) in water [1]: soluble
- gummy residue and mucin build up in infected eyes ([3]; ocular application 60 ng/2 μL per eye daily, day 8): clear of gummy residue and mucin build up
- RSV eye pathology score (scale of 0 to 5) ([3]; ocular application 60 ng/2 μL per eye, 40 min after RSV then daily, days 2-14 after RSV challenge): reduces the pathology score across all observation days
- levels of CysLTs in eye homogenates (CysLTs): reduced
- levels of IL-4 in eye homogenates (IL-4): reduced
- RSV in the lung (RSV): reduced
- RSV mRNA or protein in the eye or the lung (RSV): did not increase
- viral load in the eye or the lung (RSV): did not increase

SMILES: CC(C)(C)Sc1c(CC(C)(C)C(=O)O)n(Cc2ccc(-c3ccc(F)cn3)cc2)c2ccc(OCc3ccc4ccccc4n3)cc12 [Compound F, 3-[3-tert-Butylsulfanyl-1-[4-(5-fluoro-pyridin-2-yl)-benzyl]-5-(quinolin-2-ylmethoxy)-1H-indol-2-yl]-2,2-dimethyl-propionic acid]
- solubility in 10% beta-hydroxypropyl cyclodextrin (BHPC) in water [1]: formed a cloudy solution

SMILES: CC(C)(C)Sc1c(CC(C)(C)C(=O)O)n(Cc2ccc(-c3ccc(F)cn3)cc2)c2ccc(OCc3ccccn3)cc12 [Compound J, 3-[3-tert-butylsulfanyl-1-[4-(5-fluoro-pyridin-2-yl)-benzyl]-5-(pyridin-2-ylmethoxy)-1H-indol-2-yl]-2,2-dimethyl-propionic acid]
- solubility in 10% beta-hydroxypropyl cyclodextrin (BHPC) in water [1]: soluble

Next, values leading:

- solubility in 10% beta-hydroxypropyl cyclodextrin (BHPC) in water [1]: soluble
SMILES: CCC(CC)(Cc1c(SC(C)(C)C)c2cc(OCc3ccc(C)cn3)ccc2n1Cc1ccc(-c2ncc(OC)cn2)cc1)C(=O)O [Compound G, 2-[3-tert-Butylsulfanyl-1-[4-(5-methoxy-pyrimidin-2-yl)-benzyl]-5-(5-methyl-pyridin-2-ylmethoxy)-1H-indol-2-ylmethyl]-2-ethyl-butyric acid]

- solubility in 10% beta-hydroxypropyl cyclodextrin (BHPC) in water [1]: soluble
SMILES: COc1cnc(-c2ccc(Cn3c(CC(C)(C)C(=O)O)c(SC(C)(C)C)c4cc(OCc5ccc(C)cn5)ccc43)cc2)nc1 [Compound A, 3-[3-tert-Butylsulfanyl-1-[4-(5-methoxy-pyrimidin-2-yl)-benzyl]-5-(5-methyl-pyridin-2-ylmethoxy)-1H-indol-2-yl]-2,2-dimethyl-propionic acid]

- solubility in 10% beta-hydroxypropyl cyclodextrin (BHPC) in water [1]: soluble
SMILES: COc1cnc(-c2ccc(Cn3c(CC(C)(C)C(=O)O)c(SC(C)(C)C)c4cc(OCc5cnc(C)cn5)ccc43)cc2)nc1 [Compound B, 3-[3-tert-Butylsulfanyl-1-[4-(5-methoxy-pyrimidin-2-yl)-benzyl]-5-(5-methyl-pyrazin-2-ylmethoxy)-1H-indol-2-yl]-2,2-dimethyl-propionic acid]
